Test results: US8222275B2, “Biarylcarboxyarylamides as vanilloid-1 receptor modulators” (Pharmeste S.R.L., priority 2006, dated 2012)
pIC50, pKd, pKi: −log10 of the molar value.

What was measured:
[1] = molecular target: T1, TRPV1 expressing dorsal root ganglia neurons (Rattus norvegicus, UniProt O35433); assay: Ca2+ fluorescence measurements in cultured rat dorsal root ganglia neurones; format: cell-based; settings: 0.1 μM capsaicin, mean and 95% fiducial limits, read-out: IC50 for inhibition of capsaicin-evoked [Ca2+]i mobilization
T1 construct: Dorsal root ganglia were removed and placed in cold phosphate buffered solution; endogenous in cells; host or cells: primary cultured rat dorsal root ganglia neurons
T1 sequence (O35433 whole entry): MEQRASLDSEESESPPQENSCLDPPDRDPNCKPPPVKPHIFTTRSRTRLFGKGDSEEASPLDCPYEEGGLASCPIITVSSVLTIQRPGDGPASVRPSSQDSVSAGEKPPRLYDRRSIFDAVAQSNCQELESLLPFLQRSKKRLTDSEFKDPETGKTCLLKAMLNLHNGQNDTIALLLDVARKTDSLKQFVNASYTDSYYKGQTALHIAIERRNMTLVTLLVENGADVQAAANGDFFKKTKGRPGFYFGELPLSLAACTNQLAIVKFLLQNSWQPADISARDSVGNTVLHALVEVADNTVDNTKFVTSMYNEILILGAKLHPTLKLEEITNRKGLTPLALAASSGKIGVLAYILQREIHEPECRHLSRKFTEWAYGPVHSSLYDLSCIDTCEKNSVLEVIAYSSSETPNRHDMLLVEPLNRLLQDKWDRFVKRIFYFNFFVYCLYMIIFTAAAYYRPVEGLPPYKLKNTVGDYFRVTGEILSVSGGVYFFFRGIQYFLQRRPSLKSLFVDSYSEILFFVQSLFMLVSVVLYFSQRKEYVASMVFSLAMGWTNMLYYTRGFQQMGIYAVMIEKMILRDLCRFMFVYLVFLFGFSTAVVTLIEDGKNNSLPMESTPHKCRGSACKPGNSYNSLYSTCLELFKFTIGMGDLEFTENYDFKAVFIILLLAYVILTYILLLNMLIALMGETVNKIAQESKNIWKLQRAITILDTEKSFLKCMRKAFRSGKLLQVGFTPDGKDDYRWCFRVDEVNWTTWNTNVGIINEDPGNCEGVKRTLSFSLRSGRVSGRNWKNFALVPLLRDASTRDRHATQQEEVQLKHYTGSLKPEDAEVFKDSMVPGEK
Method: Ca^2+ Fluorescence Measurements in Cultured Rat Dorsal Root Ganglia Neurones
Adults rats were terminally anaesthetized and decapitated. Dorsal root ganglia were removed and placed in cold phosphate buffered solution (PBS) before being transferred to collagenase (10 mg/ml), trypsin (5 mg/ml) and DNAse (1 mg/ml) for 35 min at 37° C. The ganglia, placed in cold DMEM supplemented with 10% fetal bovine serum, 2 mM L-glutamine, 100 U/ml penicillin and 100 μg/ml streptomycin, were dissociated in single cells by several passages through a series of syringe needles (23 G down to 25 G). The medium and the ganglia were filtered to remove debris, topped up with 8 ml of DMEM medium and centrifuged (200×g for 5 min). The final cell pellet was re-suspended in DMEM medium [supplemented with 100 ng/ml mouse Nerve Growth Factor (mouse-NGF-7S) and cytosine-β-D-arabinofuranoside free base (ARA-C) 2.5 μM]. […] Fura-2-AM-ester was excited at […] to indicate relative [Ca^2+]i changes by the F340/F380 ratio recorded with a dynamic image analysis system (Laboratory Automation 2.0, RCS, Florence, Italy) and the cells were allowed (at least 10 min) to attain a stable fluorescence before beginning the experiment. […]

[2] = test system: capsaicin-induced tactile allodynia; assay: Capsaicin-induced secondary allodynia in rat; format: in vivo; settings: 30 μmol/kg oral 2 hours prior to capsaicin (20 nmols/50 μl/paw), evaluated 90 min after challenge
Method: Capsaicin-Induced Secondary Allodynia in Rat
Capsaicin (20 nmols/50 μl/paw) was injected in the plantar surface of the glabrous skin of the right paw of rats anesthetized with diethyl ether (Chaplan et al., 1994). Compound V394 was orally administrated (30 μmol/kg) 2 hours prior to capsaicin injection. Tactile allodynia was evaluated 90 min after capsaicin challenge.

[3] = molecular target: T2, TRPV1 expressed in rat spinal cord (Rattus norvegicus, UniProt O35433); assay: Radioligand binding assay, [3H]-RTX, rat spinal cord membranes
T2 construct: TRPV1 expressed in rat spinal cord; from tissue; host or cells: rat (Sprague-Dawley) spinal cord membranes
T2 sequence (O35433 whole entry): as above
Method: Radioligand Binding Assay
Male Sprague-Dawley rats with body weight between 250 to 350 g at the time for testing were used. For binding assays rats were sacrificed by decapitation under anesthesia and the spinal cord was removed and disrupted using a Polytron tissue homogenizer in ice cold buffer containing 5 mM KCl, 5.8 mM NaCl, 0.75 mM CaCl2, 2 mM MgCl2, 320 mM sucrose, 10 mM Hepes, pH 8.6.^5 The homogenized tissue was centrifuged at 1000×g for 10 min at 4° C. and the supernatant was centrifuged again at 35000×g for 30 min at 4° C. (Beckman Avanti J25). The pellet was resuspended in the same buffer as described above and used in binding experiments. In saturation experiments, 150 μg protein/sample from membrane suspensions were incubated with [^3H]-Resiniferatoxin ([^3H]-RTX) (0.003-3 nM) in the assay buffer containing 0.25 mg/ml fatty acid-free bovine serum albumin at 37° C. for 60 min. […]
Non specific binding was evaluated in the presence of 1 μM RTX. […] The tip of the microcentrifuge tube containing the pellet was cut off and the radioactivity was determined by scintillation counting (Packard 2500 TR). Protein concentration was determined according to a Bio-Rad method with bovine serum albumin as a standard reference (Bradford, 1976). Saturation and competition studies were analyzed with the Ligand program.^6

Compound	pIC50 [1]	melting point	preventive effect against the pro-allodinic effect of capsaicin [2]	pKi ([3]; [3H]RTX 0.4 nM, 37° C. 60 min, 95% fiducial limits in brackets, read-out: Ki value, competition binding of [3H]-RTX)	pKd ([3]; saturation experiments, [3H]-RTX 0.003-3 nM, read-out: KD value, saturation curve of [3H]-RTX)
O=C(Nc1ccc(Cl)cc1)c1ccc(-c2cccc3cnccc23)nc1 [V394, N-(4-chlorophenyl)-6-(isoquinolin-5-yl)pyridine-3-carboxamide]	9.08	258 °C	55%	7.82	
C=C(C)[C@]12C[C@@H](C)[C@@]34O[C@](Cc5ccccc5)(O[C@@H]1[C@@H]3C=C(COC(=O)Cc1ccc(O)c(OC)c1)C[C@]1(O)C(=O)C(C)=C[C@@H]41)O2 [[^3H]-RTX, [^3H]-Resiniferatoxin, reference compound]					9.68
